Experimental data taken from publication PMC7311950, “Potent Tetrahydroquinolone Eliminates Apicomplexan Parasites” (Frontiers in Cellular and Infection Microbiology, 2020).

Columns and labels:
[1] = tested on: cytochrome P450 (CYP 450), 4 of 5 isoforms tested; assay: CYP450 inhibition; assay type: in vitro ADME; conditions: human; 4/5 isoforms
[2] = tested on: T. gondii (Prugneaud strain expressing luciferase) tachyzoites; assay: Type II Prugneaud luciferase tachyzoite infection of Balb/C mice, IVIS and brain cysts; assay type: in vivo, Toxoplasma gondii
Protocol: Balb/C mice were infected intraperitoneally (IP) with 20 × 10^3 T. gondii (Prugneaud strain expressing luciferase) tachyzoites. Treatment began 2 h later with JAG21 (5 mg/kg) which was dissolved in DMSO, administered IP in a total volume of 0.05 mL. Mice were imaged every second day starting on day 4 post infection using an IVIS Spectrum (Caliper Life Sciences) for […], with medium binning, 20 min post injection with 150 mg/kg of D-luciferin potassium salt solution.
Brain cysts were searched for in paraffin imbedded tissue of the surviving Prugneaud strain infected treated Balb/C mice in the IVIS study, 30 days after infection which was 16 days after treatment had been discontinued. All treated mice had survived. There were no surviving untreated mice in those experiments.

[3] = Caco-2 permeability assay; assay type: in vitro ADME; conditions: human, A-B, read-out: Caco-2 permeability PappA-B

Cc1[nH]c2c(c(=O)c1-c1ccc(Oc3ccc(OC(F)(F)F)cc3)cc1)CCCC2 [JAG21, 2-Methyl-3-(4-(4-(Trifluoromethoxy)Phenoxy)Phenyl)-5,6,7,8-Tetrahydroquinolin-4-One]
IC50 [1]: > 10 µM | luciferase expressing parasites by IVIS ([2]; 5 mg/kg/day IP): eliminates leuciferase expressing parasites | survival of infected mice ([2]; 5 mg/kg/day IP for 14 days): 100% | cysts in brains ([2]; treated first 14 days with 5 mg/kg/day IP, 5 mg/kg/day): No cysts were found | Papp [3]: > 10 ×10⁻⁶ cm/s
